Data published in US8389523B2, “Substituted quinoxaline and an agrochemical composition thereof” (Kumiai Chemical Industry Co., Ltd., priority 2007, dated 2013).

How the values were obtained:
[1] = system: Echinochloa oryzicola Vasing; test: Herbicidal effects in paddy field soil treatment (Test Example 1); type: in vivo; design: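 grade 0 to 5 of growth suppression where 5 is 90% or more and 0 below 10%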; settings: paddy field soil treatment; 1000 g of the active ingredient per hectare; wettable powder added dropwise on water surface; 21st day after treatment
In short: (§1)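 Flooded-paddy soil treatment under greenhouse conditions: a diluted wettable powder at 1000 g a.i./ha went onto the water surface one day post-sowing, with 3 cm standing water, and weed control was graded on a scoring scale 21 days after treatment.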

[2] = system: Monochoria vaginalis (Burm. f.) Presl var. plantaginea (Roxb.) Solms-Laub.; test: as above; type: in vivo; design: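 grade 0 to 5 of growth suppression where 5 is 90% or more and 0 below 10%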; settings: paddy field soil treatment; 1000 g of the active ingredient per hectare; wettable powder added dropwise on water surface; 21st day after treatment
In short: as §1

[3] = system: Scirpus juncoides Roxb. var. ohwianus. T. Koyama; test: as above; type: in vivo; design: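 grade 0 to 5 of growth suppression where 5 is 90% or more and 0 below 10%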; settings: paddy field soil treatment; 1000 g of the active ingredient per hectare; wettable powder added dropwise on water surface; 21st day after treatment
In short: as §1

Amaranthus viridis L. [4] = test: Herbicidal effects in upland field soil treatment (Test Example 2); type: in vivo; design: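 grade 0 to 5 of growth suppression where 5 is 90% or more and 0 below 10%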; settings: 1000 g active ingredient per hectare, 21st day after treatment, criteria of Table 138
In short: (§2)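 Soil-applied before emergence at 1000 g a.i./ha as water-diluted wettable powder; greenhouse-grown plants rated for herbicidal damage 21 days post-treatment.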

[5] = system: Abutilon theophrasti medicus; test: as above; type: in vivo; design: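 grade 0 to 5 of growth suppression where 5 is 90% or more and 0 below 10%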; settings: 1000 g active ingredient per hectare, 21st day after treatment, criteria of Table 138
In short: as §2

[6] = system: Echinochloa crus-galli (L.) P. Beauv. var. crus-galli; test: Herbicidal effects in upland field foliar treatment (Test Example 3); type: in vivo; design: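 grade 0 to 5 of growth suppression where 5 is 90% or more and 0 below 10%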; settings: criteria of Table 138; for herbicidal effect (index) on Echinochloa crus-galli (L.) P. Beauv. var. crus-galli: 1000 g active ingredient per hectare, 14th day after treatment; for herbicidal effects on Echinochloa crus-galli (L.) P. Beauv. var. crus-galli: 1000 g of the active ingredient per hectare, 14th day after the treatment, wettable powder
In short: (§3)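 Post-emergence foliar treatment: two-week-old seedlings from upland field soil received 1000 g a.i./ha (wettable powder, 1000 L water/ha), then returned to the greenhouse for scoring 14 days later.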

Amaranthus viridis L. [7] = test: as above; type: in vivo; design: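 grade 0 to 5 of growth suppression where 5 is 90% or more and 0 below 10%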; settings: criteria of Table 138; for herbicidal effect (index) on Amaranthus viridis L.: 1000 g active ingredient per hectare, 14th day after treatment; for herbicidal effects on Amaranthus viridis L.: 1000 g of the active ingredient per hectare, 14th day after the treatment, wettable powder
In short: as §3

[8] = system: Abutilon theophrasti medicus; test: as above; type: in vivo; design: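 grade 0 to 5 of growth suppression where 5 is 90% or more and 0 below 10%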; settings: criteria of Table 138; for herbicidal effect (index) on Abutilon theophrasti medicus: 1000 g active ingredient per hectare, 14th day after treatment; for herbicidal effects on Abutilon theophrasti medicus: 1000 g of the active ingredient per hectare, 14th day after the treatment, wettable powder
In short: as §3

SMILES | Herbicidal effects index, Echinochloa oryzicola Vasing [1] | Herbicidal effects index, Monochoria vaginalis (Burm. f.) Presl var. plantaginea (Roxb.) Solms-Laub. [2] | Herbicidal effects index, Scirpus juncoides Roxb. var. ohwianus. T. Koyama [3] | melting point | herbicidal effect (index) on Amaranthus viridis L. (Amaranthus viridis L. [4]) | herbicidal effect (index) on Abutilon theophrasti medicus [5] | herbicidal effect (index) on Echinochloa crus-galli (L.) P. Beauv. var. crus-galli [6] | herbicidal effect (index) on Amaranthus viridis L. (Amaranthus viridis L. [7]) | herbicidal effect (index) on Abutilon theophrasti medicus [8] | herbicidal effects on Echinochloa crus-galli (L.) P. Beauv. var. crus-galli [6] | herbicidal effects on Amaranthus viridis L. (Amaranthus viridis L. [7]) | herbicidal effects on Abutilon theophrasti medicus [8]
Cn1c(=O)c(C(=O)C2=C(O)CCCC2=O)nc2ccccc21 [I-2, 3-(2-hydroxy-6-oxo-1-cyclohexenecarbonyl)-1-methylquinoxalin-2(1H)-one] | 4 | 5 | 5 | 191 to 192 °C | 5 | 5 | 4 | 5 | 5 | – | – | –
O=C1CCCC(O)=C1C(=O)c1nc2cccnc2n(Cc2ccccc2C(F)(F)F)c1=O [III-117] | 5 | 5 | 5 | – | 5 | 5 | – | – | – | 5 | 5 | 5
O=C1CCCC(O)=C1C(=O)c1nc2ccccc2n(-c2cccc3ccccc23)c1=O [I-263] | 5 | 5 | 5 | – | 5 | 5 | 5 | 5 | 5 | – | – | –
O=C1CCCC(O)=C1C(=O)c1nc2cccnc2n(-c2ccccc2)c1=O [IV-1, 2-(2-hydroxy-6-oxo-1-cyclohexenecarbonyl)-4-phenyl-pyrido[2,3-b]pyrazin-3(4H)-one] | 5 | 5 | 5 | – | 5 | 5 | – | – | – | 5 | 5 | 5
Cc1nnc(-n2c(=O)c(C(=O)C3=C(O)CCCC3=O)nc3ccccc32)s1 [I-270] | 5 | 5 | 5 | – | 5 | 5 | 5 | 5 | 5 | – | – | –
COc1cc(F)c(-n2c(=O)c(C(=O)C3=C(O)CCCC3=O)nc3ccccc32)cc1F [II-219] | 5 | 5 | 5 | – | 5 | 5 | – | – | – | 5 | 5 | 5
O=C1CCCC(O)=C1C(=O)c1nc2cccnc2n(COCC(F)(F)F)c1=O [III-59] | 5 | 5 | 5 | – | 5 | 5 | – | – | – | 5 | 5 | 5
